Values of other authors in article PMC3065555 (European journal of medicinal chemistry, 2011).

Biological target: SERCA (Oryctolagus cuniculus, UniProt P04191)
Conditions: training set compounds previously characterized; ref [1], [6], [32]

SERCA, sequence (P04191 1-994 isoform P04191-2): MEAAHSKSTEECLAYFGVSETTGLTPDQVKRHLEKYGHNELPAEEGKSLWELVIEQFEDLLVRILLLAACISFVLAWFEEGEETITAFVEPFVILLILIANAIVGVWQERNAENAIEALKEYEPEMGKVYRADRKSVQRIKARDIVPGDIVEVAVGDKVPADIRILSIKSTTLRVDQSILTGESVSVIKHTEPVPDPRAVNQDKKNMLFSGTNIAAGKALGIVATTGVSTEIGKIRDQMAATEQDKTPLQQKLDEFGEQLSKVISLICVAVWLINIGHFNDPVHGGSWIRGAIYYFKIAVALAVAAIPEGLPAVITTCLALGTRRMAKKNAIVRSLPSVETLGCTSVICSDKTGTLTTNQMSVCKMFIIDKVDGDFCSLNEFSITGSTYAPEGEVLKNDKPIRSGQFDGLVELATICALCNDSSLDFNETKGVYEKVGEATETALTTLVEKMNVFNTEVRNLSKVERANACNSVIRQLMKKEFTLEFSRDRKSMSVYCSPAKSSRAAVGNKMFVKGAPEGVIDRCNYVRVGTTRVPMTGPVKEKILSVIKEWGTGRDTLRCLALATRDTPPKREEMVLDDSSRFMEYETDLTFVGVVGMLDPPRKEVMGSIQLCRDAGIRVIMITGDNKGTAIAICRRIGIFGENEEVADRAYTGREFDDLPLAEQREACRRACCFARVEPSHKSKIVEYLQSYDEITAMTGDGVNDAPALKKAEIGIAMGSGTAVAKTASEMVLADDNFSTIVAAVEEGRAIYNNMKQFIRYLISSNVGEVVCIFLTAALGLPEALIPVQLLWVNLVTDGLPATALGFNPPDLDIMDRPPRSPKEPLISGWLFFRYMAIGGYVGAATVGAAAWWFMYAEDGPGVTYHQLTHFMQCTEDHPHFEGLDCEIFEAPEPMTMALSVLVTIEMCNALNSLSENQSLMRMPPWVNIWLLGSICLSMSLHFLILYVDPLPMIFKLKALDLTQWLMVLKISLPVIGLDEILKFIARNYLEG

Structure (SMILES)	IC50
CC(C)(C)c1ccc(C(C)(C)C)cc1 [1,4-di-tert-butylbenzene]	inactive
CC(C)(C)c1ccc(C(C)(C)C)c(O)c1 [2,5-di-tert-butylphenol]	6.81 µM
